Measured values taken from publication PMC10817917, “Alkyl deoxyglycoside-polymyxin combinations against critical priority carbapenem-resistant gram-negative bacteria” (Scientific Reports, 2024).
Like-named read-outs stand apart in the source and are kept apart here.

Experiments:
K. pneumoniae CQ1947 = assay: Broth microdilution MIC, glycosides with or without polymyxins; assay type: cell-based, Klebsiella pneumoniae; settings: for MIC: Klebsiella pneumoniae, CQ1947
K. pneumoniae CQ4921 = assay: Broth microdilution MIC/MBC, glycosides with or without polymyxins; assay type: cell-based, Klebsiella pneumoniae; settings: for MIC: Klebsiella pneumoniae, CQ4921
E. coli NCTC 13846 = assay: as above; assay type: cell-based, Escherichia coli; settings: strain B
A. baumannii CQ4322 = assay: as above; assay type: cell-based, Acinetobacter baumannii; settings: for MIC: Acinetobacter baumannii, CQ4322
HEK-293T cells = assay: Resazurin cell viability assay (cytotoxicity); assay type: cell-based, human; settings: Homo sapiens, HEK-293T, 72 h, read-out: IC50
Method in brief: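 HEK-293T and Caco-2 cells (1.5 × 10^4/well, RPMI 1640 with 10% FBS) exposed 72 h at 37 °C to glycosides at final 100 to 10 µM, alone or with PMB or colistin at final 0.5, 0.25 or 0.125 µg/mL; max DMSO 0.33%. Resazurin added 4 h, read 570/600 nm; IC50 from dose-response fits, mean ± SD of three replicates.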

[1] = test system: Bacillus anthracis (Sterne, ovine and pathogenic forms), Enterococcus faecalis and Bacillus cereus; settings: Gram-positive bacteria; cited from earlier work
P. aeruginosa CQ4924 = assay: Broth microdilution MIC, glycosides with or without polymyxins; assay type: cell-based, Pseudomonas aeruginosa; settings: for MIC: Pseudomonas aeruginosa, CQ4924
[2] = alone, read-out: MICA (MIC of each compound individually)
[3] = combination with the lowest FICI
[4] = compound + colistin, lowest FICI

CCCCCCCCCCCCO[C@@H]1C[C@@H](O)[C@H](O)[C@@H](CO)O1 [Compound 4, dodecyl 2-deoxy-α-D-arabino-hexopyranoside]
MIC of colistin in combination with the compound (K. pneumoniae CQ1947; Cpd conc. 0.4 μg/mL, strain F): 0.5 µg/mL
MIC of colistin in combination with the compound (K. pneumoniae CQ1947; Cpd conc. 0.8 μg/mL, strain F): 0.5 µg/mL
MIC of colistin in combination with the compound (K. pneumoniae CQ1947; Cpd conc. 3.125 μg/mL, strain F): 0.5 µg/mL
MIC of colistin in combination with the compound (K. pneumoniae CQ1947; Cpd conc. 6.25 μg/mL, strain F): 0.5 µg/mL
MIC of colistin in combination with the compound (K. pneumoniae CQ1947; Cpd conc. 12.5 μg/mL, strain F): 0.5 µg/mL
MIC of colistin in combination with the compound (K. pneumoniae CQ1947; Cpd conc. […], strain F): 0.5 µg/mL
MIC (K. pneumoniae CQ1947; agent alone, no adjuvant (polymyxin conc. 0), strain F, read-out: MIC): > 100 µg/mL
MIC (K. pneumoniae CQ1947; [2]): > 100 µg/mL
MIC of compound in combination with PMB (K. pneumoniae CQ1947; PMB 0.25 μg/mL, strain F): > 100 µg/mL
MIC of compound in combination with PMB (K. pneumoniae CQ1947; PMB 0.5 μg/mL, strain F): > 100 µg/mL
MIC of compound in combination with colistin (K. pneumoniae CQ1947; colistin 0.25 μg/mL, strain F): > 100 µg/mL
MIC of compound in combination with colistin (K. pneumoniae CQ1947; colistin 0.5 μg/mL, strain F): ≤ 0.1 µg/mL
MICA(A + B) (MIC of compound in combination with colistin) (K. pneumoniae CQ1947; [3]): 0.4 µg/mL
MICB(A + B) (MIC of colistin in combination with compound) (K. pneumoniae CQ1947; [3]): 0.5 µg/mL
Interpretation (of FICI) (K. pneumoniae CQ1947; compound + colistin): Indifferent (1.0 to 4.0 were indifferent)
FICI (K. pneumoniae CQ1947; [4]): 1.002
MIC of colistin in combination with the compound (K. pneumoniae CQ4921; Cpd conc. 0.4 μg/mL, strain C): 0.5 µg/mL
MIC of colistin in combination with the compound (K. pneumoniae CQ4921; Cpd conc. 0.8 μg/mL, strain C): 0.5 µg/mL
MIC of colistin in combination with the compound (K. pneumoniae CQ4921; Cpd conc. 3.125 μg/mL, strain C): 0.5 µg/mL
MIC of colistin in combination with the compound (K. pneumoniae CQ4921; Cpd conc. 6.25 μg/mL, strain C): 0.5 µg/mL
MIC of colistin in combination with the compound (K. pneumoniae CQ4921; Cpd conc. 12.5 μg/mL, strain C): 0.5 µg/mL
MIC of colistin in combination with the compound (K. pneumoniae CQ4921; Cpd conc. […], strain C): 0.5 µg/mL
MIC (K. pneumoniae CQ4921; agent alone, no adjuvant (polymyxin conc. 0), strain C, read-out: MIC): > 100 µg/mL
MIC (K. pneumoniae CQ4921; [2]): > 100 µg/mL
MIC of compound in combination with PMB (K. pneumoniae CQ4921; PMB 0.25 μg/mL, strain C): > 100 µg/mL
MIC of compound in combination with PMB (K. pneumoniae CQ4921; PMB 0.5 μg/mL, strain C): 1.6 µg/mL
MIC of compound in combination with colistin (K. pneumoniae CQ4921; colistin 0.25 μg/mL, strain C): > 100 µg/mL
MIC of compound in combination with colistin (K. pneumoniae CQ4921; colistin 0.5 μg/mL, strain C): ≤ 0.1 µg/mL
MICA(A + B) (MIC of compound in combination with colistin) (K. pneumoniae CQ4921; [3]): 0.4 µg/mL
MICB(A + B) (MIC of colistin in combination with compound) (K. pneumoniae CQ4921; [3]): 0.5 µg/mL
Interpretation (of FICI) (K. pneumoniae CQ4921; compound + colistin): Indifferent (1.0 to 4.0 were indifferent)
FICI (K. pneumoniae CQ4921; [4]): 1.002
MIC of colistin in combination with the compound (E. coli NCTC 13846; Cpd conc. 0.4 μg/mL): > 0.5 µg/mL
MIC of colistin in combination with the compound (E. coli NCTC 13846; Cpd conc. 0.8 μg/mL): > 0.5 µg/mL
MIC of colistin in combination with the compound (E. coli NCTC 13846; Cpd conc. 3.125 μg/mL): > 0.5 µg/mL
MIC of colistin in combination with the compound (E. coli NCTC 13846; Cpd conc. 6.25 μg/mL): > 0.5 µg/mL
MIC of colistin in combination with the compound (E. coli NCTC 13846; Cpd conc. 12.5 μg/mL): > 0.5 µg/mL
MIC of colistin in combination with the compound (E. coli NCTC 13846; Cpd conc. […]): > 0.5 µg/mL
MIC (E. coli NCTC 13846; Escherichia coli, NCTC13846, agent alone, no adjuvant (polymyxin conc. 0), read-out: MIC): > 100 µg/mL
MIC of compound in combination with PMB (E. coli NCTC 13846; PMB 0.25 μg/mL): > 100 µg/mL
MIC of compound in combination with PMB (E. coli NCTC 13846; PMB 0.5 μg/mL): > 100 µg/mL
MIC of compound in combination with colistin (E. coli NCTC 13846; colistin 0.25 μg/mL): > 100 µg/mL
MIC of compound in combination with colistin (E. coli NCTC 13846; colistin 0.5 μg/mL): > 100 µg/mL
MIC (A. baumannii CQ4322; agent alone, no adjuvant (polymyxin conc. 0), strain G, read-out: MIC): > 100 µg/mL
MIC (A. baumannii CQ4322; [2]): > 100 µg/mL
MIC of colistin in combination with the compound (A. baumannii CQ4322; Cpd conc. 0.4 μg/mL, strain G): 0.5 µg/mL
MIC of colistin in combination with the compound (A. baumannii CQ4322; Cpd conc. 0.8 μg/mL, strain G): 0.5 µg/mL
MIC of colistin in combination with the compound (A. baumannii CQ4322; Cpd conc. 3.125 μg/mL, strain G): 0.5 µg/mL
MIC of colistin in combination with the compound (A. baumannii CQ4322; Cpd conc. 6.25 μg/mL, strain G): 0.5 µg/mL
MIC of colistin in combination with the compound (A. baumannii CQ4322; Cpd conc. 12.5 μg/mL, strain G): 0.5 µg/mL
MIC of colistin in combination with the compound (A. baumannii CQ4322; Cpd conc. […], strain G): 0.5 µg/mL
MIC of compound in combination with PMB (A. baumannii CQ4322; PMB 0.25 μg/mL, strain G): > 100 µg/mL
MIC of compound in combination with colistin (A. baumannii CQ4322; colistin 0.25 μg/mL, strain G): > 100 µg/mL
MIC of compound in combination with colistin (A. baumannii CQ4322; colistin 0.5 μg/mL, strain G): ≤ 0.1 µg/mL
MICA(A + B) (MIC of compound in combination with colistin) (A. baumannii CQ4322; [3]): 0.4 µg/mL
MICB(A + B) (MIC of colistin in combination with compound) (A. baumannii CQ4322; [3]): 0.5 µg/mL
Interpretation (of FICI) (A. baumannii CQ4322; compound + colistin): Indifferent (1.0 to 4.0 were indifferent)
FICI (A. baumannii CQ4322; [4]): 1.002
IC50 (HEK-293T cells; Colistin 0.5 μg/mL): > 100 µM
IC50 (HEK-293T cells; No polymyxin): > 100 µM
IC50 (HEK-293T cells; PMB 0.5 μg/mL): > 100 µM
IC50 (HEK-293T cells; tested alone (no polymyxin adjuvant)): > 33 µg/mL
MIC [1]: 12 to 386 µM
MIC of colistin in combination with the compound (P. aeruginosa CQ4924; Cpd conc. 0.4 μg/mL, strain H): > 0.5 µg/mL
MIC of colistin in combination with the compound (P. aeruginosa CQ4924; Cpd conc. 0.8 μg/mL, strain H): > 0.5 µg/mL
MIC of colistin in combination with the compound (P. aeruginosa CQ4924; Cpd conc. 3.125 μg/mL, strain H): > 0.5 µg/mL
MIC of colistin in combination with the compound (P. aeruginosa CQ4924; Cpd conc. 6.25 μg/mL, strain H): > 0.5 µg/mL
MIC of colistin in combination with the compound (P. aeruginosa CQ4924; Cpd conc. 12.5 μg/mL, strain H): > 0.5 µg/mL
MIC of colistin in combination with the compound (P. aeruginosa CQ4924; Cpd conc. […], strain H): > 0.5 µg/mL
MIC of compound in combination with PMB (P. aeruginosa CQ4924; PMB 0.25 μg/mL, strain H): > 100 µg/mL
MIC of compound in combination with PMB (P. aeruginosa CQ4924; PMB 0.5 μg/mL, strain H): > 100 µg/mL
MIC (P. aeruginosa CQ4924; agent alone, no adjuvant (polymyxin conc. 0), strain H, read-out: MIC): > 100 µg/mL
MIC (P. aeruginosa CQ4924; [2]): > 100 µg/mL
MIC of compound in combination with colistin (P. aeruginosa CQ4924; colistin 0.25 μg/mL, strain H): > 100 µg/mL
